CCOc1ccc(OCC)cc1
solubility (mole fraction)
Conditions | 278.15 K | 283.15 K | 288.15 K | 293.15 K | 298.15 K | 303.15 K | 308.15 K | 313.15 K | 318.15 K
in 2-butanone | 0.077 | 0.0958 | 0.113 | 0.136 | 0.169 | 0.204 | 0.257 | 0.31 | 0.406
in acetone | 0.0531 | 0.0679 | 0.0839 | 0.0969 | 0.12 | 0.158 | 0.204 | 0.263 | 0.341
in acetonitrile | 0.0204 | 0.0265 | 0.0372 | 0.0498 | 0.0672 | 0.102 | 0.141 | 0.251 | 0.473
in dimethyl carbonate | 0.0243 | 0.0339 | 0.0537 | 0.072 | 0.0994 | 0.145 | 0.193 | 0.25 | 0.342
in ethanol | 0.00307 | 0.00646 | 0.00901 | 0.0119 | 0.0155 | 0.0189 | 0.0234 | 0.031 | 0.043
in ethyl acetate | 0.0775 | 0.0933 | 0.113 | 0.145 | 0.179 | 0.218 | 0.264 | 0.313 | 0.372
in ethyl lactate | 0.0196 | 0.0305 | 0.0458 | 0.0578 | 0.0738 | 0.0875 | 0.109 | 0.148 | 0.213
in isobutyl acetate | 0.0332 | 0.045 | 0.0655 | 0.0872 | 0.112 | 0.145 | 0.181 | 0.225 | 0.281
in methanol | 0.00207 | 0.00338 | 0.00473 | 0.00666 | 0.00924 | 0.0115 | 0.0158 | 0.0212 | 0.0309
in methyl acetate | 0.0544 | 0.0685 | 0.0905 | 0.112 | 0.145 | 0.193 | 0.24 | 0.29 | 0.347
in n-butyl acetate | 0.0821 | 0.11 | 0.142 | 0.172 | 0.213 | 0.254 | 0.293 | 0.347 | 0.432
in n-propyl acetate | 0.0586 | 0.0753 | 0.0981 | 0.133 | 0.165 | 0.202 | 0.255 | 0.313 | 0.383

From BigSolDB 2.1
